Reference: EPA's ToxRefDB 2

What was measured:
mouse [1] = settings: Carcinogenicity; cd1; Oral; [Not Specified]; group: systemic; systemic / in life observation / body weight / body weight gain
dog [2] = settings: Chronic toxicity, beagle, Oral, Feed, dose end: 52 week, group: systemic
rat [3] = settings: Subchronic oral toxicity in rodents, wistar, Feed, dose end: 90 day, group: systemic, systemic / in life observation / body weight / body weight + systemic / in life observation / body weight / body weight gain + systemic / in…
rabbit [4] = settings: Prenatal developmental toxicity study, new zealand white, Oral, Gavage/Intubation, dose end: 19 GD
dog [5] = settings: Subchronic oral toxicity in nonrodent, beagle, Feed, dose end: 13 week, group: systemic
rat [6] = settings: Combined chronic toxicity/carcinogenicity; wistar; Oral; Feed; dose end: 104 week; group: systemic; systemic / in life observation / body weight / body weight + systemic / in life observation / body weight / body weight gain
rat [7] = settings: Prenatal developmental toxicity study, sprague dawley, Oral, Gavage/Intubation, dose end: 15 GD
rat [8] = settings: Multigenerational reproductive toxicity study, wistar, Oral, Feed, dose end: 2 generation
dog [9] = settings: Subchronic oral toxicity in nonrodent, beagle, Capsule, dose end: 96 day, group: systemic, systemic / in life observation / body weight / body weight gain + systemic / in life observation / clinical signs / emaciation + systemic / …
rat [10] = settings: Sub-acute dermal toxicity, sprague dawley, Topical, dose end: 21 day, group: systemic
rat [11] = settings: Subchronic oral toxicity in rodents, sprague dawley, Feed, dose end: 90 day, group: systemic, systemic / clinical chemistry / albumin / albumin + systemic / in life observation / body weight / body weight gain + systemic / organ …
dog [12] = settings: Chronic toxicity; beagle; Oral; Feed; dose end: 104 week; group: systemic; systemic / clinical chemistry / alanine aminotransferase (alt/sgpt) / alanine aminotransferase (alt/sgpt) + systemic / clinical chemistry / …
mouse [13] = settings: Carcinogenicity, cd1, Oral, Feed, dose end: 80 week, group: systemic
rat [14] = settings: Combined chronic toxicity/carcinogenicity, sprague dawley, Oral, Feed, dose end: 104 week, group: systemic
rabbit [15] = settings: Prenatal developmental toxicity study, new zealand white, Oral, Gavage/Intubation, dose end: 18 GD
rat [16] = settings: Subchronic oral toxicity in rodents, wistar, Feed, dose end: 90 day, group: systemic
dog [17] = settings: Subchronic oral toxicity in nonrodent, beagle, Feed, dose end: 118 day, group: systemic
rat [18] = settings: Prenatal developmental toxicity study, sprague dawley, Oral, Gavage/Intubation, dose end: 19 GD
[19] = systemic / in life observation / food consumption / food consumption
[20] = group: developmental, developmental / developmental malformation / bone / supernumerary + developmental / developmental malformation / bone / extra ossification …
[21] = group: maternal, systemic / in life observation / body weight / body weight gain + systemic / in life observation / clinical signs / abnormal feces
[22] = group: maternal, systemic / in life observation / body weight / body weight gain + systemic / in life observation / clinical signs / abnormal feces + …
[23] = systemic / pathology microscopic / bone marrow / hyperplasia + systemic / pathology microscopic / liver / hematopoietic cell proliferation
[24] = systemic / pathology microscopic / bone marrow / hyperplasia + systemic / pathology microscopic / liver / hematopoietic cell proliferation…
[25] = group: developmental, developmental / developmental malformation / bone / incomplete ossification + systemic / in life observation / body weight / fetal weight
[26] = group: maternal, systemic / in life observation / body weight / body weight gain + systemic / in life observation / food consumption / food consumption
[27] = group: offspring, developmental / developmental malformation / general / runts + systemic / in life observation / body weight / offspring (pup) weight + …
[28] = group: offspring, developmental / developmental malformation / general / runts + systemic / organ weight / thymus / absolute + systemic / organ weight / …
[29] = group: reproductive, reproductive / offspring survival early / birth index / live birth index
[30] = systemic / in life observation / body weight / body weight gain
[31] = systemic / in life observation / clinical signs / erythema
[32] = systemic / organ weight / liver / absolute
[33] = systemic / organ weight / liver / absolute + systemic / organ weight / liver / relative to body weight
[34] = systemic / pathology microscopic / testes / adenoma + systemic / in life observation / body weight / body weight + systemic / in life …
[35] = group: developmental, developmental / developmental malformation / bone / incomplete ossification
[36] = group: maternal, reproductive / reproductive performance / postimplantation loss / postimplantation loss + reproductive / reproductive performance / …
[37] = systemic / clinical chemistry / alanine aminotransferase (alt/sgpt) / alanine aminotransferase (alt/sgpt) + systemic / clinical chemistry / …
[38] = systemic / clinical chemistry / creatinine / creatinine + systemic / clinical chemistry / urea nitrogen / urea nitrogen
[39] = systemic / clinical chemistry / creatinine / creatinine + systemic / clinical chemistry / urea nitrogen / urea nitrogen + systemic / …
[40] = group: developmental, developmental / developmental malformation / bone / bent + developmental / developmental malformation / bone / full supernumerary + …
[41] = group: maternal, reproductive / reproductive performance / resorptions / resorptions + systemic / in life observation / clinical signs / abnormal movements…

## C/C(=N\NC(=O)Nc1cc(F)cc(F)c1)c1ncccc1C(=O)O [Diflufenzopyr]
Mouse [1]
  LEL: 1000 mg/kg/day
  LOAEL: > 1000 mg/kg/day
  NEL: 500 mg/kg/day
  NOAEL: ≥ 1000 mg/kg/day
Dog [2]; systemic / hematology / reticulocyte / reticulocyte + systemic / pathology microscopic / bone marrow / hyperplasia
  LOAEL: 299 mg/kg/day
Dog [2]; systemic / hematology / reticulocyte / reticulocyte + systemic / pathology microscopic / bone marrow / hyperplasia + systemic / hematology…
  NOAEL: 26 mg/kg/day
Dog [2]; [19]
  LEL: 26 mg/kg/day
  NEL: < 26 mg/kg/day
Rat [3]
  LEL: 725 mg/kg/day
  LOAEL: 725 mg/kg/day
  NEL: 352 mg/kg/day
  NOAEL: 352 mg/kg/day
Rabbit [4]; group: developmental, developmental / developmental malformation / bone / supernumerary
  LOAEL: 300 mg/kg/day
Rabbit [4]; [20]
  LEL: 300 mg/kg/day
  NEL: 100 mg/kg/day
  NOAEL: 100 mg/kg/day
Rabbit [4]; [21]
  LEL: 100 mg/kg/day
  LOAEL: 100 mg/kg/day
Rabbit [4]; [22]
  NEL: 30 mg/kg/day
  NOAEL: 30 mg/kg/day
Dog [5]; [23]
  LEL: 403 mg/kg/day
  LOAEL: 403 mg/kg/day
Dog [5]; [24]
  NEL: 58 mg/kg/day
  NOAEL: 58 mg/kg/day
Rat [6]
  LEL: 69 mg/kg/day
  LOAEL: > 518 mg/kg/day
  NEL: 22 mg/kg/day
  NOAEL: ≥ 518 mg/kg/day
Rat [7]; [25]
  LEL: 1000 mg/kg/day
  LOAEL: 1000 mg/kg/day
  NEL: 300 mg/kg/day
  NOAEL: 300 mg/kg/day
Rat [7]; [26]
  LEL: 1000 mg/kg/day
  LOAEL: 1000 mg/kg/day
  NEL: 300 mg/kg/day
  NOAEL: 300 mg/kg/day
Rat [8]; [27]
  LEL: 552 mg/kg/day
  LOAEL: 552 mg/kg/day
Rat [8]; [28]
  NEL: 126 mg/kg/day
  NOAEL: 126 mg/kg/day
Rat [8]; [29]
  LEL: 552 mg/kg/day
  LOAEL: 552 mg/kg/day
  NEL: 126 mg/kg/day
  NOAEL: 126 mg/kg/day

## CCCCCCCCCCCCN=C(N)N [Dodecylguanidine]
Dog [9]
  LEL: 100 mg/kg/day
  LOAEL: 100 mg/kg/day
  NEL: 25 mg/kg/day
  NOAEL: 25 mg/kg/day
Rat [10]; [30]
  LOAEL: 50 mg/kg/day
Rat [10]; systemic / in life observation / body weight / body weight gain + systemic / in life observation / clinical signs / desquamation + systemic…
  NOAEL: 25 mg/kg/day
Rat [10]; [31]
  LEL: 12.5 mg/kg/day
  NEL: < 12.5 mg/kg/day

## CCOC1Oc2ccc(OS(C)(=O)=O)cc2C1(C)C (configuration not stated) [Ethofumesate]
Rat [11]
  LEL: 1900 mg/kg/day
  LOAEL: 1900 mg/kg/day
  NEL: 190 mg/kg/day
  NOAEL: 190 mg/kg/day
Dog [12]
  LEL: 619 mg/kg/day
  LOAEL: 619 mg/kg/day
  NEL: 109 mg/kg/day
  NOAEL: 109 mg/kg/day
Mouse [13]; [32]
  LEL: 204 mg/kg/day
  NEL: < 204 mg/kg/day
Mouse [13]; [33]
  LOAEL: > 2140 mg/kg/day
  NOAEL: ≥ 2140 mg/kg/day
Rat [14]; [30]
  LOAEL: 469 mg/kg/day
Rat [14]; systemic / in life observation / body weight / body weight gain + systemic / clinical chemistry / alkaline phosphatase (alp/alk) / alkaline …
  NOAEL: 127 mg/kg/day
Rat [14]; [34]
  LEL: 97 mg/kg/day
  NEL: < 97 mg/kg/day
Rabbit [15]; [35]
  LEL: 300 mg/kg/day
  LOAEL: 300 mg/kg/day
  NEL: 30 mg/kg/day
  NOAEL: 30 mg/kg/day
Rabbit [15]; [36]
  LEL: 300 mg/kg/day
  LOAEL: 300 mg/kg/day
  NEL: 30 mg/kg/day
  NOAEL: 30 mg/kg/day

## CNC.Cc1cc(Cl)ccc1OCC(=O)O [MCPA-dimethylammonium]
Rat [16]; [37]
  LOAEL: 208 mg/kg/day
  NOAEL: 42 mg/kg/day
Rat [16]; [33]
  LEL: 4 mg/kg/day
  NEL: < 4 mg/kg/day
Dog [17]; [38]
  LEL: 2.4 mg/kg/day
  LOAEL: 2.4 mg/kg/day
Dog [17]; [39]
  NEL: 0.6 mg/kg/day
  NOAEL: 0.6 mg/kg/day
Rat [18]; [40]
  LEL: 185 mg/kg/day
  LOAEL: 185 mg/kg/day
  NEL: 62 mg/kg/day
  NOAEL: 62 mg/kg/day
Rat [18]; [41]
  LEL: 185 mg/kg/day
  LOAEL: 185 mg/kg/day
  NEL: 62 mg/kg/day
  NOAEL: 62 mg/kg/day
